A word on the IC50: it is the concentration at which inhibition is half-maximal.

Experimental findings from patent US20260042755A1, “GPR6 INVERSE AGONISTS” (MapLight Therapeutics, Inc., priority 2022, published 2026) are described below.

One assay addresses T1, GPR3 (Homo sapiens, UniProt P46089).
T1 construct: expressed in transfected cells; host or cells: CHO cells
Description: GPR3 antagonist functional cAMP assay (LANCE Ultra cAMP TR-FRET, CHO cells stably expressing GPR3). It is filed as cell-based. In a few lines: (§1)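 Compounds, at 0.1% final DMSO, acted on the cells for 45 minutes at 37 °C in the presence of the phosphodiesterase inhibitor Ro 20-1724 (150 μM). After lysis and detection, plates were shaken 1 h at room temperature and emission at 665 nm was recorded. Normalized data gave IC50 values.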
In general terms: cAMP levels reflect the balance of adenylyl cyclase and phosphodiesterase activity.

A further assay deals with T2, GPR6 (Homo sapiens, UniProt P46095).
T2 construct: expressed in transfected cells; host or cells: CHO cells
Briefly: GPR6 antagonist functional cAMP assay (LANCE Ultra cAMP TR-FRET, CHO cells stably expressing GPR6). It is filed as cell-based. Summed up:
as §1

Setting [1] is: procedure as described in Example 24.
The mark [2] stands for this setting: CHO cells stably expressing GPR3, cAMP assay (Example 24).
Setting [3] is: CHO cells stably expressing GPR6, cAMP assay (Example 24).
The mark [4] stands for this setting: CHO cells stably expressing GPR3, cAMP assay.
The mark [5] stands for this setting: CHO cells stably expressing GPR6, cAMP assay.

The structures appear in SMILES notation.

T1 sequence (P46089 whole entry, species assumed): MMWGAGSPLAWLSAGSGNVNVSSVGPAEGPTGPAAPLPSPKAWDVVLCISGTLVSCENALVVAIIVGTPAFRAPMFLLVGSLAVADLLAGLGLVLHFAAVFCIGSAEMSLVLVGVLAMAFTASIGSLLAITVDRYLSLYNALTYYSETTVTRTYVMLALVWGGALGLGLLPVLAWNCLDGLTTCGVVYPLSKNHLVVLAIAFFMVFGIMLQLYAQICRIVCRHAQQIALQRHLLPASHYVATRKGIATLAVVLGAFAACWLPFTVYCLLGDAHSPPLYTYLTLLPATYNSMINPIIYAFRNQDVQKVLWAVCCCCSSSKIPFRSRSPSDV
T2 sequence (P46095 whole entry): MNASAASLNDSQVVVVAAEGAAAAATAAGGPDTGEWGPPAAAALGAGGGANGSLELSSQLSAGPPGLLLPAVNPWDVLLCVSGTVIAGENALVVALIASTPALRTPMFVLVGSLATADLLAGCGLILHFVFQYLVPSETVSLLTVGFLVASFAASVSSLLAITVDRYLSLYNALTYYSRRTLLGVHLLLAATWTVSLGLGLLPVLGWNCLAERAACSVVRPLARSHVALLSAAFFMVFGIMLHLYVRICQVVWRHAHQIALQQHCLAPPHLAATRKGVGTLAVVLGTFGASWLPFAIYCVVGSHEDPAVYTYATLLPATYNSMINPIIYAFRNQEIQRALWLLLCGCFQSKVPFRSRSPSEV

For `CC(=O)N1CCc2nc(N3CCC(Oc4ccc(F)cc4F)CC3)c(-c3cccc(OC4CCC4)n3)nc2C1` [Compound 30, 1-[3-(6-cyclobutoxypyridin-2-yl)-2-[4-(2,4-difluorophenoxy)piperidin-1-yl]-5H,6H,7H,8H-pyrido[3,4-b]pyrazin-6-yl]ethan-1-one], the concentration for half-maximal inhibition (IC50) against GPR3 (setting [1]) and against GPR6 (setting [1]) was 1 to 30 µM each time.

`CCn1cc(-c2nc3c(nc2N2CCC(Oc4ccc(F)cc4F)CC2)CCN(C#N)C3)cn1` [Compound 274, 2-(4-(2,4-difluorophenoxy)piperidin-1-yl)-3-(1-ethyl-1H-pyrazol-4-yl)-7,8-dihydropyrido[3,4-b]pyrazine-6(5H)-carbonitrile]: the IC50 against GPR3 (procedure of Example 24) is 1 to 30 µM; against GPR6 (procedure of Example 24), less than 0.1 µM.

Regarding `Cn1cc(-c2nc3cnc(C[C@H](O)CO)cc3nc2N2CCC(Oc3ccc(F)cc3F)CC2)cn1` (single isomer, unassigned) [Compound 416], the 50% inhibitory concentration (IC50) at GPR3 (setting [2]) lay within 1 to 30 µM; against GPR6 (setting [3]), 0.1 to 1 µM.

As to `CC(=O)N1CCc2nc(N3CCC(Oc4ccc(F)cc4F)CC3)c(-c3cn[nH]c3C(C)C)nc2C1` [Compound 31, 1-{2-[4-(2,4-difluorophenoxy)piperidin-1-yl]-3-[5-(propan-2-yl)-1H-pyrazol-4-yl]-5H,6H,7H,8H-pyrido[3,4-b]pyrazin-6-yl}ethan-1-one], the IC50 against GPR3 (setting [1]) and at GPR6 (setting [1]) was 1 to 30 µM in each case.

With `COc1cnc(-c2nc3c(nc2N2CCC(Oc4ccc(F)cc4F)CC2)CCN(C(C)=O)C3)nc1` [Compound 191, 1-{2-[4-(2,4-difluorophenoxy)piperidin-1-yl]-3-(5-methoxypyrimidin-2-yl)-5H,6H,7H,8H-pyrido[3,4-b]pyrazin-6-yl}ethan-1-one], the IC50 at GPR3 (setting [2]) and at GPR6 (setting [3]) was 1 to 30 µM in each case.

In the case of `Nc1cc2nc(N3CCC(Oc4ccc(F)cc4F)CC3)c(-c3cnn(C4CC4)c3)nc2cn1` [Compound 462, 3-(1-cyclopropyl-1H-pyrazol-4-yl)-2-[4-(2,4-difluorophenoxy)piperidin-1-yl]pyrido[3,4-b]pyrazin-7-amine], the 50% inhibitory concentration (IC50) lay in the range of 1 to 30 µM on GPR3 (setting [2]) and 0.1 to 1 µM against GPR6 (setting [3]).

In the case of `Cn1cc(-c2nc3cnc(OCC(C)(C)O)cc3nc2N2CCC(Oc3ccc(F)cc3F)CC2)cn1` [Compound 696, 1-{2-[4-(2,4-difluorophenoxy)-1-piperidyl]-3-(1-methyl-4-pyrazolyl)-1,4,6-triaza-7-naphthyloxy}-2-methyl-2-propanol], the IC50 fell in the range of 1 to 30 µM on GPR3 (procedure of Example 24) and 0.1 to 1 µM at GPR6 (procedure of Example 24).

Take `CC(=O)N1CCc2nc(N3CCC(Oc4ccccc4)C3)c(-c3cnn(C)c3)nc2C1` (stereo not drawn) [Compound 418, 1-[3-(1-methyl-1H-pyrazol-4-yl)-2-(3-phenoxypyrrolidin-1-yl)-5H,6H,7H,8H-pyrido[3,4-b]pyrazin-6-yl]ethan-1-one]: the concentration for half-maximal inhibition (IC50) against GPR3 (setting [2]) and against GPR6 (setting [3]) was 1 to 30 µM throughout.

Consider `CC(=O)N1CCc2nc(N3CCN(C(=O)c4ccc(F)cc4Cl)CC3)c(-c3cnn(C)c3)nc2C1` [Compound 253, 1-{2-[4-(2-chloro-4-fluorobenzoyl)piperazin-1-yl]-3-(1-methyl-1H-pyrazol-4-yl)-5H,6H,7H,8H-pyrido[3,4-b]pyrazin-6-yl}ethan-1-one], for which the half-inhibitory concentration (IC50) against GPR3 (setting [2]) and against GPR6 (setting [3]) was 1 to 30 µM in each case.

Turning to `COCC1CN(c2nc3ccncc3nc2-c2cn[nH]c2)CCN1Cc1ccc(F)cc1F` (single isomer, unassigned) [Compound 89, 2-(4-(2,4-difluorobenzyl)-3-(methoxymethyl)piperazin-1-yl)-3-(1H-pyrazol-4-yl)pyrido[3,4-b]pyrazine], the half-maximal inhibitory concentration (IC50) against GPR3 (setting [2]) and against GPR6 (setting [3]) was 1 to 30 µM in each case.

Consider `CC(=O)N1CCc2nc(N3CCN(Cc4ccc(=O)[nH]c4)CC3)c(-c3cnn(C)c3)nc2C1` [Compound 532, 5-({4-[6-acetyl-3-(1-methyl-4-pyrazolyl)-5,6,7,8-tetrahydro-1,4,6-triaza-2-naphthyl]-1-piperazinyl}methyl)-2(1H)-pyridinone], for which the half-inhibitory concentration (IC50) against GPR3 (setting [4]) and on GPR6 (setting [5]) was no less than 30 µM in each case.

On to `CC(=O)N1CCc2nc(N3CCC(Oc4ccc(F)cc4F)CC3)c(-c3ccc(=O)n(C)c3)nc2C1` [Compound 21, 5-{6-acetyl-2-[4-(2,4-difluorophenoxy)piperidin-1-yl]-5H,6H,7H,8H-pyrido[3,4-b]pyrazin-3-yl}-1-methyl-1,2-dihydropyridin-2-one], for which the half-inhibitory concentration (IC50) on GPR3 (setting [1]) and against GPR6 (setting [1]) was 1 to 30 µM in each case.

For `CC(C)(O)C(=O)c1cncc2nc(-c3cnn(C(F)F)c3)c(N3CCN(Cc4ccc(F)cc4F)CC3)nc12` [Compound 693, 1-{3-[1-(difluoromethyl)-4-pyrazolyl]-2-{4-[(2,4-difluorophenyl)methyl]-1-piperazinyl}-1,4,6-triaza-8-naphthyl}-2-hydroxy-2-methyl-1-propanone], the values for the half-inhibitory concentration (IC50) against GPR3 (procedure of Example 24) and against GPR6 (procedure of Example 24) were no less than 30 µM and 1 to 30 µM, respectively.

With `CC(C)(O)C(O)c1cc2nc(-c3cnn(C(F)F)c3)c(N3CCC(=Cc4ccc(F)cc4F)CC3)nc2cn1` (single isomer, unassigned) [Compound 767], the results for the concentration for half-maximal inhibition (IC50) at GPR3 (procedure of Example 24) and at GPR6 (procedure of Example 24) were 1 to 30 µM and 0.1 to 1 µM, respectively.

For `CC(=O)N1CCc2nc(N3CCN(Cc4ccccc4Br)CC3)c(-c3cnn(C)c3)nc2C1` [Compound 508, 1-(2-{4-[(o-bromophenyl)methyl]-1-piperazinyl}-3-(1-methyl-4-pyrazolyl)-5,6,7,8-tetrahydro-1,4,6-triaza-6-naphthyl)-1-ethanone], the IC50 against GPR3 (setting [4]) was 1 to 30 µM; against GPR6 (setting [5]), 0.1 to 1 µM.

For `CC(C)(O)C(C)(O)c1cc2nc(N3CCN(Cc4ccccc4F)CC3)c(-c3cnn(C(F)F)c3)nc2cn1` (stereo not drawn) [Compound 634, 2-{3-[1-(difluoromethyl)-4-pyrazolyl]-2-{4-[(o-fluorophenyl)methyl]-1-piperazinyl}-1,4,6-triaza-7-naphthyl}-3-methyl-2,3-butanediol], the IC50 at GPR3 (procedure of Example 24) is 1 to 30 µM; at GPR6 (procedure of Example 24), 0.1 to 1 µM.

For the molecule `CC(=O)N1CCc2nc(N3CCC(C(=O)c4ccc(F)cc4F)CC3)c(-c3cnn(C)c3)nc2C1` [Compound 541, 1-{2-[4-(2,4-difluorobenzoyl)-1-piperidyl]-3-(1-methyl-4-pyrazolyl)-5,6,7,8-tetrahydro-1,4,6-triaza-6-naphthyl}-1-ethanone], the 50% inhibitory concentration (IC50) against GPR3 (setting [4]) is 1 to 30 µM; against GPR6 (setting [5]), 0.1 to 1 µM.

Turning to `CC(=O)N1CCc2nc(N3CCC(Oc4ccc(F)cc4F)CC3)c(-c3cnn(CCN(C)C)c3)nc2C1` [Compound 138, 1-{2-[4-(2,4-difluorophenoxy)piperidin-1-yl]-3-{1-[2-(dimethylamino)ethyl]-1H-pyrazol-4-yl}-5H,6H,7H,8H-pyrido[3,4-b]pyrazin-6-yl}ethan-1-one], the IC50 against GPR3 (setting [2]) and against GPR6 (setting [3]) was 1 to 30 µM in each case.

`COC1CCC(c2nc3c(nc2N2CCC(Oc4ccc(F)cc4F)CC2)CCN(C(C)=O)C3)CC1` (stereo not drawn) [Compound 373, 1-(2-(4-(2,4-difluorophenoxy)piperidin-1-yl)-3-(4-methoxycyclohexyl)-7,8-dihydropyrido[3,4-b]pyrazin-6(5H)-yl)ethan-1-one]: the IC50 against GPR3 (procedure of Example 24) fell in the range of 1 to 30 µM; against GPR6 (procedure of Example 24), 0.1 to 1 µM.

In the case of `Cn1cc(-c2nc3cnc(N4CCOCC4)cc3nc2N2CCC(Oc3ccc(F)cc3F)CC2)cn1` [Compound 449, 4-{2-[4-(2,4-difluorophenoxy)piperidin-1-yl]-3-(1-methyl-1H-pyrazol-4-yl)pyrido[3,4-b]pyrazin-7-yl}morpholine], the IC50 at GPR3 (setting [2]) and on GPR6 (setting [3]) was 1 to 30 µM throughout.

Regarding `CC(C)S(=O)(=O)N1CCc2nc(N3CCC(Oc4ccc(F)cc4F)CC3)c(-c3ccc(F)c(N)n3)nc2C1` [Compound 627, 6-{2-[4-(2,4-difluorophenoxy)-1-piperidyl]-6-(isopropylsulfonyl)-5,6,7,8-tetrahydro-1,4,6-triaza-3-naphthyl}-3-fluoro-2-pyridylamine], the IC50 against GPR3 (procedure of Example 24) was in the range of 1 to 30 µM; at GPR6 (procedure of Example 24), 0.1 to 1 µM.

For `CC(=O)N1CCc2nc(N3CCC(Oc4ccc(F)cc4F)CC3)c(-c3cccc(OC4CCOC4)n3)nc2C1` (stereo not drawn) [Compound 61, 1-{2-[4-(2,4-difluorophenoxy)piperidin-1-yl]-3-[6-(oxolan-3-yloxy)pyridin-2-yl]-5H,6H,7H,8H-pyrido[3,4-b]pyrazin-6-yl}ethan-1-one], the IC50 against GPR3 (setting [2]) and against GPR6 (setting [3]) was 1 to 30 µM throughout.

Regarding `CC(=O)N1CCc2nc(N3CCC(C(=O)Nc4ccc(F)cc4F)C3)c(-c3cnn(C)c3)nc2C1` (stereo not drawn) [Compound 365, 1-[6-acetyl-3-(1-methyl-1H-pyrazol-4-yl)-5H,6H,7H,8H-pyrido [3,4-b]pyrazin-2-yl]-N-(2,4-difluorophenyl)pyrrolidine-3-carboxamide], the concentration for half-maximal inhibition (IC50) against GPR3 (procedure of Example 24) and against GPR6 (procedure of Example 24) was no less than 30 µM each time.

As for `CC(C)(O)[C@@](C)(O)c1cc2nc(N3CCN(Cc4ccc(F)cc4F)CC3)c(-c3cnn(C(F)F)c3)nc2cn1` (single isomer, unassigned) [Compound 695], the half-maximal inhibitory concentration (IC50) lay within 1 to 30 µM on GPR3 (procedure of Example 24) and 0.1 to 1 µM against GPR6 (procedure of Example 24).

`CC(C)(O)[C@@](C)(O)c1cc2nc(N3CCC(Oc4ccc(F)cc4F)CC3)c(-c3cnn(C4CC4)c3)nc2cn1` (single isomer, unassigned) [Compound 665]: the IC50 against GPR3 (procedure of Example 24) was 1 to 30 µM; against GPR6 (procedure of Example 24), 0.1 to 1 µM.

Consider `CC(=O)N1CCc2nc(N3CCC(Oc4ccc(F)cc4F)CC3)c(-c3cnn4c3COCC4)nc2C1` [Compound 245, 1-{2-[4-(2,4-difluorophenoxy)piperidin-1-yl]-3-{4H,6H,7H-pyrazolo [3,2-c][1,4]oxazin-3-yl}-5H,6H,7H,8H-pyrido[3,4-b]pyrazin-6-yl}ethan-1-one], for which the half-maximal inhibitory concentration (IC50) at GPR3 (setting [2]) was in the range of 1 to 30 µM; at GPR6 (setting [3]), 0.1 to 1 µM.

For the molecule `CCn1cc(-c2nc3cnc([C@@H](O)C(C)(C)O)cc3nc2N2CCC(Oc3ccc(F)cc3F)CC2)cn1` (single isomer, unassigned) [Compound 570], the half-maximal inhibitory concentration (IC50) was 1 to 30 µM against GPR3 (setting [4]) and less than 0.1 µM at GPR6 (setting [5]).
